For 21 compounds, MIC and IC50 results are on record in ChEMBL document CHEMBL4602663, “Isocadiolides A-H: Polybrominated Aromatics from a Synoicum sp. Ascidian” (J Nat Prod, 2020).

One test deals with Staphylococcus aureus. Description: Antibacterial activity against Staphylococcus aureus ATCC 6538P assessed as reduction in microbial growth. The format is functional.
Another test has as its system Enterococcus faecalis. Description: Antibacterial activity against Enterococcus faecalis ATCC 19433 assessed as reduction in microbial growth. In kind it is functional.
For the next test, the target named is T1, Sortase A (Staphylococcus aureus, UniProt Q9S446).
T1 sequence (Q9S446 whole entry): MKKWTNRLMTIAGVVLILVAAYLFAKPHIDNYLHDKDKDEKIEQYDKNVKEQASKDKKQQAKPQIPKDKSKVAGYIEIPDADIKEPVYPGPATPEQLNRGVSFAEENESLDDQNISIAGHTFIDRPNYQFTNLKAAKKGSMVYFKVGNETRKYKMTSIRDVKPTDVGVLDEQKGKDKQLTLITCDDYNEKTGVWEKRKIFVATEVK
The test is described as follows: Inhibition of Staphylococcus aureus sortase A.

The test system of the next test is Salmonella enterica. The test is described as follows: Antibacterial activity against Salmonella enterica ATCC 14028 assessed as reduction in microbial growth. The format is functional.
A further test has as its system Klebsiella pneumoniae. Description: Antibacterial activity against Klebsiella pneumoniae ATCC 10031 assessed as reduction in microbial growth. In kind it is functional.
The test system of the next test is Enterococcus faecium. The test is described as follows: Antibacterial activity against Enterococcus faecium ATCC 19434 assessed as reduction in microbial growth. In kind it is functional.
Another test concerns Proteus hauseri. The test is described as follows: Antibacterial activity against Proteus hauseri NBRC 3851 assessed as reduction in microbial growth. In kind it is functional.
Another test addresses Isocitrate lyase (Candida albicans, UniProt Q9P8Q7). The test is described as follows: Inhibition of Candida albicans ICL assessed as reduction in glyoxylate phenylhydrazone formation using M threo-DL(+)isocitrate as substrate incubated for 30 mins by spectrophotometric method.
Another test has as its system K562. The test is described as follows: Cytotoxicity against human K562 cells assessed as reduction in cell viability after 72 hrs by sulforhodamine B assay. The settings on record: K562, 72 h. The format is functional, cell-based.
In a further test the test system is A549. The test is described as follows: Cytotoxicity against human A549 cells assessed as reduction in cell viability after 72 hrs by sulforhodamine B assay. As to conditions: A549, 72 h. In kind it is functional, cell-based.

The structures appear in SMILES notation.

Isocitrate lyase, sequence (Q9P8Q7 whole entry): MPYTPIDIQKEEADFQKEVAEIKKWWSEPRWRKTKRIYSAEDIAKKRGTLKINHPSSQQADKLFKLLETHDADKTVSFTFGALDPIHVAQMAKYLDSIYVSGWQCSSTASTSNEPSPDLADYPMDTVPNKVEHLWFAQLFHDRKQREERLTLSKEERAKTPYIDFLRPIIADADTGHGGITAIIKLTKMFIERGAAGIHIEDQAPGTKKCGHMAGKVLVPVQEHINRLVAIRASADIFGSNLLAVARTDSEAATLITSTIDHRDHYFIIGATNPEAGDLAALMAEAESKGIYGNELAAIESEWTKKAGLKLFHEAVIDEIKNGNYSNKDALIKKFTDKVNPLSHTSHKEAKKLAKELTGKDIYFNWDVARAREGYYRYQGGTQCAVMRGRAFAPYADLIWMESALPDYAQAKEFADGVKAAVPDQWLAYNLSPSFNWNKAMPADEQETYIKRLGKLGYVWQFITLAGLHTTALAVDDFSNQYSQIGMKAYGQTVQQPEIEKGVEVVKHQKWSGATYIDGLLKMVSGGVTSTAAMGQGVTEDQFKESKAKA

On to `O=C1O/C(=C\c2ccc(O)c(Br)c2)C(c2ccc(O)c(Br)c2)=C1C(=O)c1cc(Br)c(O)c(Br)c1` [CADIOLIDE C], for which the MIC in the test on Staphylococcus aureus is 32 µg/mL; in the test on Enterococcus faecalis it was > 128 µg/mL; with Salmonella enterica, 64 µg/mL; in the test with Klebsiella pneumoniae it was > 128 µg/mL; with Enterococcus faecium it was > 128 µg/mL; in the test on Proteus hauseri it was > 128 µg/mL. For the same compound, the IC50 against Sortase A turned out to be 59 µM; on Isocitrate lyase, 17 µM.

Turning to `COc1ccc2cc3[n+](cc2c1OC)CCc1cc2c(cc1-3)OCO2` [BERBERINE CHLORIDE], the midpoint of inhibition at Sortase A, the IC50, lay at 102 µM.

On to `COC(=O)C1=C(c2ccc(O)c(Br)c2)C(=O)[C@](c2ccc(O)c(Br)c2)(c2cc(Br)c(O)c(Br)c2)C1=O`, for which the MIC was 32 µg/mL in the test on Staphylococcus aureus; > 128 µg/mL with Enterococcus faecalis; 64 µg/mL in the test with Salmonella enterica; > 128 µg/mL in the test with Klebsiella pneumoniae; > 128 µg/mL in the test on Enterococcus faecium; 8 µg/mL with Proteus hauseri. Moreover, the IC50 at Sortase A was 102 µM; in the test on K562 it was > 10 µM; in the test on A549, > 10 µM; on Isocitrate lyase it was 47 µM.

`COC(=O)C1=C(c2cc(Br)c(O)c(Br)c2)[C@](OC)(c2cc(Br)c(O)c(Br)c2)O[C@@]1(C(=O)OC)c1cc(Br)c(O)c(Br)c1`: the minimum inhibitory concentration (MIC) in the test with Staphylococcus aureus is 64 µg/mL; with Enterococcus faecalis, > 128 µg/mL; with Salmonella enterica, > 128 µg/mL; with Klebsiella pneumoniae it was > 128 µg/mL; in the test on Enterococcus faecium, > 128 µg/mL; in the test with Proteus hauseri, > 128 µg/mL. In addition, the IC50 was > 133 µM on Sortase A, > 10 µM in the test with K562, > 10 µM in the test with A549 and 104 µM at Isocitrate lyase.

Regarding `COC(=O)C1=C(c2cc(Br)c(O)c(Br)c2)C(=O)C(c2cc(Br)c(O)c(Br)c2)(c2cc(Br)c(O)c(Br)c2)C1=O`, the MIC is 16 µg/mL in the test with Staphylococcus aureus; 64 µg/mL with Enterococcus faecalis; 64 µg/mL in the test on Salmonella enterica; > 128 µg/mL in the test with Klebsiella pneumoniae; > 128 µg/mL in the test on Enterococcus faecium; > 128 µg/mL with Proteus hauseri. Moreover, the IC50 was 67 µM against Sortase A, > 10 µM in the test on K562, > 10 µM in the test with A549 and 22 µM at Isocitrate lyase.

As to `O=C1O/C(=C\c2ccc(O)c(Br)c2)C(c2cc(Br)c(O)c(Br)c2)=C1C(=O)c1cc(Br)c(O)c(Br)c1` [CADIOLIDE D], the MIC was 64 µg/mL in the test on Staphylococcus aureus; > 128 µg/mL with Enterococcus faecalis; > 128 µg/mL with Salmonella enterica; > 128 µg/mL in the test on Klebsiella pneumoniae; > 128 µg/mL in the test with Enterococcus faecium; > 128 µg/mL in the test with Proteus hauseri. The IC50 on Sortase A worked out at 34 µM; on Isocitrate lyase, 11 µM.

`O=C(O)C1=C(c2ccc(O)c(Br)c2)C(=O)C(c2cc(Br)c(O)c(Br)c2)(c2cc(Br)c(O)c(Br)c2)C1=O`: the MIC with Staphylococcus aureus, in the test on Enterococcus faecalis, in the test with Salmonella enterica, with Klebsiella pneumoniae, in the test with Enterococcus faecium and in the test with Proteus hauseri was > 128 µg/mL throughout. The IC50 against Sortase A is > 159 µM; in the test on K562 it was > 10 µM; with A549, > 10 µM; at Isocitrate lyase, 54 µM.

As for `COc1c(Br)cc([C@H](O)C2=C(c3ccc(O)c(Br)c3)/C(=C/c3cc(Br)c(O)c(Br)c3)OC2=O)cc1Br`, the MIC in the test on Staphylococcus aureus is 2 µg/mL; in the test with Enterococcus faecalis, 8 µg/mL; in the test on Salmonella enterica, 4 µg/mL; in the test on Klebsiella pneumoniae, > 128 µg/mL; in the test with Enterococcus faecium, > 128 µg/mL; in the test on Proteus hauseri it was 2 µg/mL. Further, the IC50 against Sortase A and at Isocitrate lyase was > 159 µM in each case.

In the case of `COC(=O)C1=C(c2cc(Br)c(O)c(Br)c2)[C@](OC)(c2ccc(O)c(Br)c2)O[C@@]1(C(=O)OC)c1cc(Br)c(O)c(Br)c1`, the minimal inhibitory concentration (MIC) in the test with Staphylococcus aureus is 64 µg/mL; in the test with Enterococcus faecalis, 8 µg/mL; in the test with Salmonella enterica, 64 µg/mL; in the test with Klebsiella pneumoniae it was > 128 µg/mL; with Enterococcus faecium, > 128 µg/mL; in the test with Proteus hauseri it was 64 µg/mL. The IC50 on Sortase A was > 145 µM; in the test on K562 it was > 10 µM; in the test with A549, > 10 µM; at Isocitrate lyase, > 145 µM.

On to `O=C1C=C(c2cc(Br)c(O)c(Br)c2)/C(=C/c2cc(Br)c(O)c(Br)c2)O1` [RUBROLIDE A], for which the minimum inhibitory concentration (MIC) was 32 µg/mL in the test with Staphylococcus aureus; > 128 µg/mL with Enterococcus faecalis; 32 µg/mL in the test on Salmonella enterica; > 128 µg/mL with Klebsiella pneumoniae; > 128 µg/mL in the test with Enterococcus faecium; 16 µg/mL in the test with Proteus hauseri. The IC50 on Sortase A is 216 µM; at Isocitrate lyase it was > 216 µM.

Consider `COc1c(Br)cc([C@H](O)C2=C(c3cc(Br)c(O)c(Br)c3)/C(=C/c3ccc(O)c(Br)c3)OC2=O)cc1Br`, for which the MIC in the test on Staphylococcus aureus was 8 µg/mL; with Enterococcus faecalis, 32 µg/mL; in the test with Salmonella enterica, 8 µg/mL; with Klebsiella pneumoniae, > 128 µg/mL; in the test with Enterococcus faecium it was > 128 µg/mL; with Proteus hauseri it was 4 µg/mL. Besides, the IC50 against Sortase A and at Isocitrate lyase was > 159 µM in each case.

Regarding `COc1ccc(C[C@@]2(O)OC(=O)C([C@@H](O)c3cc(Br)c(OC)c(Br)c3)=C2c2cc(Br)c(O)c(Br)c2)cc1Br`, the MIC in the test with Staphylococcus aureus is 16 µg/mL; in the test with Enterococcus faecalis, 64 µg/mL; in the test with Salmonella enterica, 16 µg/mL; with Klebsiella pneumoniae, > 128 µg/mL; in the test on Enterococcus faecium it was > 128 µg/mL; in the test with Proteus hauseri it was 16 µg/mL. Further, the IC50 against Sortase A was > 153 µM; in the test on K562 it was > 10 µM; with A549, > 10 µM; at Isocitrate lyase, 63 µM.

For `COC(=O)C1=C(c2cc(Br)c(O)c(Br)c2)C(=O)[C@](c2ccc(O)c(Br)c2)(c2cc(Br)c(O)c(Br)c2)C1=O`, the MIC was 16 µg/mL in the test on Staphylococcus aureus; > 128 µg/mL with Enterococcus faecalis; 64 µg/mL in the test with Salmonella enterica; > 128 µg/mL in the test with Klebsiella pneumoniae; > 128 µg/mL with Enterococcus faecium; 64 µg/mL in the test on Proteus hauseri. In addition, the IC50 on Sortase A is 70 µM; with K562 it was > 10 µM; in the test on A549 it was > 10 µM; on Isocitrate lyase, 49 µM.

`CC1(C)S[C@@H]2[C@H](NC(=O)[C@H](N)c3ccccc3)C(=O)N2[C@H]1C(=O)O` [AMPICILLIN]: the MIC with Staphylococcus aureus is 0.03 µg/mL; with Enterococcus faecalis, 0.5 µg/mL; in the test on Salmonella enterica it was 0.06 µg/mL; in the test with Enterococcus faecium it was 0.5 µg/mL; in the test with Proteus hauseri, 0.03 µg/mL.

`O=C1O/C(=C\c2cc(Br)c(O)c(Br)c2)C(c2ccc(O)c(Br)c2)=C1C(=O)c1cc(Br)c(O)c(Br)c1` [CADIOLIDE E]: the minimum inhibitory concentration (MIC) with Staphylococcus aureus, with Enterococcus faecalis, with Salmonella enterica, in the test on Klebsiella pneumoniae, in the test with Enterococcus faecium and in the test with Proteus hauseri was > 128 µg/mL in each case. The results for the IC50 against Sortase A and at Isocitrate lyase were > 162 µM and 27 µM, respectively.

Turning to `COc1ccc(/C=C2\OC(=O)C([C@@H](O)c3cc(Br)c(OC)c(Br)c3)=C2c2cc(Br)c(O)c(Br)c2)cc1Br`, the MIC was 32 µg/mL in the test with Staphylococcus aureus; 64 µg/mL with Enterococcus faecalis; 64 µg/mL with Salmonella enterica; > 128 µg/mL in the test with Klebsiella pneumoniae; > 128 µg/mL in the test on Enterococcus faecium; 8 µg/mL in the test with Proteus hauseri. Moreover, the IC50 was > 156 µM on Sortase A and 150 µM at Isocitrate lyase.

With `O=C1C=C(c2cc(Br)c(O)c(Br)c2)C(=O)C1(c1cc(Br)c(O)c(Br)c1)c1cc(Br)c(O)c(Br)c1`, the MIC is 4 µg/mL in the test with Staphylococcus aureus; > 128 µg/mL in the test with Enterococcus faecalis; 64 µg/mL with Salmonella enterica; > 128 µg/mL in the test on Klebsiella pneumoniae; > 128 µg/mL in the test with Enterococcus faecium; > 128 µg/mL in the test on Proteus hauseri. Further, the IC50 is 88 µM against Sortase A, > 10 µM with K562, > 10 µM in the test with A549 and 34 µM at Isocitrate lyase.

`COC(=O)C1=C(c2cc(Br)c(O)c(Br)c2)C(=O)[C@](OC)(c2ccc(O)c(Br)c2)O[C@]1(OC)c1cc(Br)c(O)c(Br)c1`: the minimum inhibitory concentration (MIC) was 64 µg/mL in the test with Staphylococcus aureus; > 128 µg/mL in the test with Enterococcus faecalis; > 128 µg/mL in the test on Salmonella enterica; > 128 µg/mL with Klebsiella pneumoniae; > 128 µg/mL in the test with Enterococcus faecium; > 128 µg/mL in the test on Proteus hauseri. In addition, the IC50 at Sortase A was > 145 µM; in the test on K562, > 10 µM; with A549 it was > 10 µM; on Isocitrate lyase, 127 µM.

Regarding `O=C1O/C(=C\c2cc(Br)c(O)c(Br)c2)C(c2cc(Br)c(O)c(Br)c2)=C1C(=O)c1cc(Br)c(O)c(Br)c1` [CADIOLIDE B], the minimal inhibitory concentration (MIC) is 64 µg/mL with Staphylococcus aureus; > 128 µg/mL with Enterococcus faecalis; > 128 µg/mL with Salmonella enterica; > 128 µg/mL in the test with Klebsiella pneumoniae; > 128 µg/mL in the test with Enterococcus faecium; > 128 µg/mL in the test with Proteus hauseri. The IC50 on Sortase A came to 103 µM; on Isocitrate lyase, 61 µM.

With `CN(C)[C@@H]1C(O)=C(C(N)=O)C(=O)[C@@]2(O)C(O)=C3C(=O)c4c(O)cccc4[C@@](C)(O)[C@H]3C[C@@H]12` [TETRACYCLINE], the minimal inhibitory concentration (MIC) with Klebsiella pneumoniae came to 0.25 µg/mL.

For `O=C(O)CC[N+](=O)[O-]`, the IC50 at Isocitrate lyase came to 17 µM.
